From ChEMBL document CHEMBL4138123, “Design, synthesis and biological evaluation of novel pyrazolochalcones as potential modulators of PI3K/Akt/mTOR pathway and inducers of apoptosis in breast cancer cells” (Eur J Med Chem, 2017)
The source made the active and inactive calls. No cut-off for these calls is given here.

Columns and labels:
[1] = tested on: SF-295; test: Cytotoxicity against human SF295 cells assessed as growth inhibition after 48 hrs by sulforhodamine B assay; type: functional; conditions: SF-295, 48 h
[2] = tested on: LOX IMVI; test: Cytotoxicity against human LOXIMVI cells assessed as cell growth at 0.01 uM after 48 hrs by sulforhodamine B assay relative to control; type: functional; conditions: read-out: Activity
[3] = tested on: SNB-75; test: Cytotoxicity against human SNB75 cells assessed as cell growth at 10 uM after 48 hrs by sulforhodamine B assay relative to control; type: functional; conditions: SNB-75, 48 h, read-out: Activity
[4] = tested on: SF-295; test: Cytotoxicity against human SF295 cells assessed as cell growth at 10 uM after 48 hrs by sulforhodamine B assay relative to control; type: functional; conditions: SF-295, 48 h, read-out: Activity
[5] = tested on: CAKI-1; test: Cytotoxicity against human Caki1 cells assessed as cell growth at 0.01 uM after 48 hrs by sulforhodamine B assay relative to control; type: functional; conditions: CAKI-1, 48 h, read-out: Activity
[6] = tested on: HOP-92; test: Cytotoxicity against human HOP92 cells assessed as cell growth at 0.01 uM after 48 hrs by sulforhodamine B assay relative to control; type: functional; conditions: HOP-92, 48 h, read-out: Activity
[7] = tested on: SF-295; test: Cytotoxicity against human SF295 cells assessed as cell growth at 0.01 uM after 48 hrs by sulforhodamine B assay relative to control; type: functional; conditions: SF-295, 48 h, read-out: Activity
[8] = tested on: CAKI-1; test: Cytotoxicity against human Caki1 cells assessed as cell growth at 100 uM after 48 hrs by sulforhodamine B assay relative to control; type: functional; conditions: CAKI-1, 48 h, read-out: Activity
[9] = tested on: HOP-92; test: Cytotoxicity against human HOP92 cells assessed as cell growth at 0.1 uM after 48 hrs by sulforhodamine B assay relative to control; type: functional; conditions: HOP-92, 48 h, read-out: Activity
[10] = tested on: LOX IMVI; test: Cytotoxicity against human LOXIMVI cells assessed as cell growth at 10 uM after 48 hrs by sulforhodamine B assay relative to control; type: functional; conditions: read-out: Activity
[11] = tested on: HOP-92; test: Cytotoxicity against human HOP92 cells assessed as cell growth at 1 uM after 48 hrs by sulforhodamine B assay relative to control; type: functional; conditions: HOP-92, 48 h, read-out: Activity
[12] = tested on: HOP-92; test: Cytotoxicity against human HOP92 cells assessed as growth inhibition after 48 hrs by sulforhodamine B assay; type: functional; conditions: HOP-92, 48 h; for CC50: read-out: LC50 (the source's name)
[13] = tested on: SNB-75; test: Cytotoxicity against human SNB75 cells assessed as cell growth at 100 uM after 48 hrs by sulforhodamine B assay relative to control; type: functional; conditions: SNB-75, 48 h, read-out: Activity
[14] = tested on: SF-295; test: Cytotoxicity against human SF295 cells assessed as cell growth at 100 uM after 48 hrs by sulforhodamine B assay relative to control; type: functional; conditions: SF-295, 48 h, read-out: Activity
[15] = tested on: SK-MEL-2; test: Cytotoxicity against human SK-MEL-2 cells assessed as cell growth at 1 uM after 48 hrs by sulforhodamine B assay relative to control; type: functional; conditions: SK-MEL-2, 48 h, read-out: Activity
[16] = tested on: SK-MEL-2; test: Cytotoxicity against human SK-MEL-2 cells assessed as cell growth at 0.1 uM after 48 hrs by sulforhodamine B assay relative to control; type: functional; conditions: SK-MEL-2, 48 h, read-out: Activity
[17] = tested on: SNB-75; test: Cytotoxicity against human SNB75 cells assessed as cell growth at 1 uM after 48 hrs by sulforhodamine B assay relative to control; type: functional; conditions: SNB-75, 48 h, read-out: Activity
[18] = tested on: SNB-75; test: Cytotoxicity against human SNB75 cells assessed as cell growth at 0.01 uM after 48 hrs by sulforhodamine B assay relative to control; type: functional; conditions: SNB-75, 48 h, read-out: Activity
[19] = tested on: LOX IMVI; test: Cytotoxicity against human LOXIMVI cells assessed as cell growth at 0.1 uM after 48 hrs by sulforhodamine B assay relative to control; type: functional; conditions: read-out: Activity
[20] = tested on: SNB-75; test: Cytotoxicity against human SNB75 cells assessed as cell growth at 0.1 uM after 48 hrs by sulforhodamine B assay relative to control; type: functional; conditions: SNB-75, 48 h, read-out: Activity
[21] = tested on: SK-MEL-2; test: Cytotoxicity against human SK-MEL-2 cells assessed as cell growth at 10 uM after 48 hrs by sulforhodamine B assay relative to control; type: functional; conditions: SK-MEL-2, 48 h, read-out: Activity
[22] = tested on: SF-295; test: Cytotoxicity against human SF295 cells assessed as cell growth at 0.1 uM after 48 hrs by sulforhodamine B assay relative to control; type: functional; conditions: SF-295, 48 h, read-out: Activity
[23] = tested on: HOP-92; test: Cytotoxicity against human HOP92 cells assessed as cell growth at 10 uM after 48 hrs by sulforhodamine B assay relative to control; type: functional; conditions: HOP-92, 48 h, read-out: Activity
[24] = tested on: LOX IMVI; test: Cytotoxicity against human LOXIMVI cells assessed as cell growth at 100 uM after 48 hrs by sulforhodamine B assay relative to control; type: functional; conditions: read-out: Activity
[25] = tested on: SK-MEL-2; test: Cytotoxicity against human SK-MEL-2 cells assessed as cell growth at 0.01 uM after 48 hrs by sulforhodamine B assay relative to control; type: functional; conditions: SK-MEL-2, 48 h, read-out: Activity
[26] = tested on: CAKI-1; test: Cytotoxicity against human Caki1 cells assessed as growth inhibition after 48 hrs by sulforhodamine B assay; type: functional; conditions: CAKI-1, 48 h
[27] = tested on: CAKI-1; test: Cytotoxicity against human Caki1 cells assessed as cell growth at 1 uM after 48 hrs by sulforhodamine B assay relative to control; type: functional; conditions: CAKI-1, 48 h, read-out: Activity
[28] = tested on: LOX IMVI; test: Cytotoxicity against human LOXIMVI cells assessed as cell growth at 1 uM after 48 hrs by sulforhodamine B assay relative to control; type: functional; conditions: read-out: Activity
[29] = tested on: SK-MEL-2; test: Cytotoxicity against human SK-MEL-2 cells assessed as cell growth at 100 uM after 48 hrs by sulforhodamine B assay relative to control; type: functional; conditions: SK-MEL-2, 48 h, read-out: Activity
[30] = tested on: CAKI-1; test: Cytotoxicity against human Caki1 cells assessed as cell growth at 10 uM after 48 hrs by sulforhodamine B assay relative to control; type: functional; conditions: CAKI-1, 48 h, read-out: Activity
[31] = tested on: HOP-92; test: Cytotoxicity against human HOP92 cells assessed as cell growth at 100 uM after 48 hrs by sulforhodamine B assay relative to control; type: functional; conditions: HOP-92, 48 h, read-out: Activity
[32] = tested on: CAKI-1; test: Cytotoxicity against human Caki1 cells assessed as cell growth at 0.1 uM after 48 hrs by sulforhodamine B assay relative to control; type: functional; conditions: CAKI-1, 48 h, read-out: Activity
[33] = tested on: SF-295; test: Cytotoxicity against human SF295 cells assessed as cell growth at 1 uM after 48 hrs by sulforhodamine B assay relative to control; type: functional; conditions: SF-295, 48 h, read-out: Activity
[34] = tested on: MCF7; test: Inhibition of PI3K in human MCF7 cells assessed as downregulation of phosphorylated Akt levels at 2 uM after 24 hrs by Western blot analysis; type: cell-based
[35] = tested on: MCF7; test: Downregulation of PI3K mRNA expression in human MCF7 cells at 2 uM after 48 hrs by qRT-PCR analysis; type: functional, cell-based
[36] = tested on: MCF7; test: Cell cycle arrest in human MCF7 cells assessed as accumulation at G2/M phase at 2 uM after 48 hrs by flow cytometric analysis (reference value: 8.1%); type: functional
[37] = tested on: MCF7; test: Inhibition of PI3K in human MCF7 cells assessed as increase in GSK-3beta phosphorylation at Ser9 at 2 uM after 24 hrs by Western blot analysis; type: cell-based
[38] = tested on: MCF7; test: Downregulation of PI3K protein expression in human MCF7 cells at 2 uM after 24 hrs by Western blot analysis; type: functional, cell-based
[39] = tested on: MCF7; test: Induction of intrinsic apoptosis in human MCF7 cells assessed as effect on mitochondrial membrane depolarization at 2 uM after 18 hrs by DiOC6 staining-based FACS analysis (reference value: 2%); type: functional
[40] = tested on: MCF7; test: Induction of apoptosis in human MCF7 cells assessed as necrotic cells at 2 uM after 24 hrs by Annexin-V FITC/propidium iodide staining-based FACS analysis (reference value: 0.2%); type: functional
[41] = tested on: MCF7; test: Downregulation of Bcl-2 mRNA expression in human MCF7 cells at 2 uM after 48 hrs by qRT-PCR analysis; type: functional, cell-based
[42] = tested on: MCF7; test: Downregulation of Akt1 mRNA expression in human MCF7 cells at 2 uM after 48 hrs by qRT-PCR analysis; type: functional, cell-based

SMILES: COc1ccc(C(=O)/C=C/c2cc(-c3ccc4c(c3)OCO4)n[nH]2)cc1OC
- LC50 [1]: 22.2 µM
- TGI [1]: 6.15 µM
- growth at 0.01 µM [2]: 100%
- growth at 10 µM [3]: -10%
- growth at 10 µM [4]: -27%
- growth at 0.01 µM [5]: 93%
- growth at 0.01 µM [6]: 85%
- growth at 0.01 µM [7]: 95%
- growth at 100 µM [8]: -65%
- growth at 0.1 µM [9]: 87%
- growth at 10 µM [10]: -62%
- growth at 1 µM [11]: 79%
- TGI [12]: 8.11 µM
- CC50 [12]: 62.2 µM
- growth at 100 µM [13]: -100%
- growth at 100 µM [14]: -93%
- growth at 1 µM [15]: 107%
- growth at 0.1 µM [16]: 95%
- growth at 1 µM [17]: 76%
- growth at 0.01 µM [18]: 78%
- growth at 0.1 µM [19]: 99%
- growth at 0.1 µM [20]: 76%
- growth at 10 µM [21]: 39%
- growth at 0.1 µM [22]: 98%
- growth at 10 µM [23]: -8%
- growth at 100 µM [24]: -78%
- growth at 0.01 µM [25]: 98%
- LC50 [26]: 9.84 µM
- TGI [26]: 4.33 µM
- growth at 1 µM [27]: 89%
- growth at 1 µM [28]: 97%
- growth at 100 µM [29]: -68%
- growth at 10 µM [30]: -51%
- growth at 100 µM [31]: -61%
- growth at 0.1 µM [32]: 100%
- growth at 1 µM [33]: 101%

SMILES: COc1ccc(-c2cc(/C=C/C(=O)c3ccc(OC)c(OC)c3)[nH]n2)cc1
- GI50 [1]: 2.08 µM
- LC50 [1]: 22 µM
- TGI [1]: 5.37 µM
- phospho-Akt downregulation (active/inactive) [34]: Active
- growth at 10 µM [3]: -53%
- Activity [35]: Active
- growth at 10 µM [4]: -33%
- growth at 0.01 µM [5]: 98%
- growth at 0.01 µM [7]: 98%
- growth at 100 µM [8]: -70%
- Activity [36]: 16.5%
- Activity call (increase in GSK-3beta Ser9 phosphorylation) [37]: Active
- growth at 100 µM [13]: -100%
- growth at 100 µM [14]: -83%
- growth at 1 µM [17]: 74%
- Activity [38]: Active
- growth at 0.01 µM [18]: 88%
- Activity [39]: 26%
- growth at 0.1 µM [20]: 79%
- growth at 0.1 µM [22]: 97%
- GI50 [26]: 1.55 µM
- LC50 [26]: 7.96 µM
- TGI [26]: 3.52 µM
- Activity [40]: 0.7%
- growth at 1 µM [27]: 77%
- growth at 10 µM [30]: -64%
- growth at 0.1 µM [32]: 96%
- Activity [41]: Active
- growth at 1 µM [33]: 88%
- Activity [42]: Active

SMILES: COc1cc(C(=O)/C=C/c2cc(-c3cc(OC)c(OC)c(OC)c3)n[nH]2)cc(OC)c1OC
- growth at 0.01 µM [2]: 102%
- phospho-Akt downregulation (active/inactive) [34]: Active
- Activity [35]: Active
- growth at 0.01 µM [5]: 91%
- growth at 0.01 µM [6]: 86%
- growth at 100 µM [8]: -94%
- growth at 0.1 µM [9]: 68%
- Activity [36]: 4.96%
- Activity call (increase in GSK-3beta Ser9 phosphorylation) [37]: Active
- growth at 10 µM [10]: -95%
- growth at 1 µM [11]: 1%
- TGI [12]: 1.02 µM
- CC50 [12]: 5.54 µM
- growth at 1 µM [15]: 97%
- growth at 0.1 µM [16]: 111%
- Activity [38]: Active
- growth at 0.1 µM [19]: 101%
- Activity [39]: 1%
- growth at 10 µM [21]: -63%
- growth at 10 µM [23]: -67%
- growth at 100 µM [24]: -95%
- growth at 0.01 µM [25]: 104%
- LC50 [26]: 35.5 µM
- TGI [26]: 10.9 µM
- Activity [40]: 1.1%
- growth at 1 µM [27]: 82%
- growth at 1 µM [28]: 82%
- growth at 100 µM [29]: -96%
- growth at 10 µM [30]: 4%
- growth at 100 µM [31]: -95%
- growth at 0.1 µM [32]: 89%
- Activity [41]: Active
- Activity [42]: Active
